The supplement of paper PMC10307832

Experiments:
Test in all cases: relative viability (nuclei count vs DMSO), 5 days (fraction); higher = more cells survive
[1] = compound: CC(=O)c1c(C)c2cnc(Nc3ccc(N4CCNCC4)cn3)nc2n(C2CCCC2)c1=O [Palbociclib] + NC(=O)Nc1cc(-c2cccc(F)c2)sc1C(=O)N[C@H]1CCCNC1 [AZD7762] (partner 0.2 µM)
How it was run: (§1)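 Lung cancer cell lines were seeded in 1536-well plates and dosed by pin tool the next day, with either a single drug or a fixed anchor-drug dose combined with five library-drug doses (not always all listed) spaced in √10 steps. Five days later, one step fixed the cells and stained their nuclei (final 0.05% Triton X-100, 1% formaldehyde, 1 ug/ml Hoechst), and nuclei were counted on 4× images. Relative viability is the nuclei count in treated wells divided by the count in vehicle wells, and each value is the median of duplicate plates.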

[2] = compound: CC(=O)c1c(C)c2cnc(Nc3ccc(N4CCNCC4)cn3)nc2n(C2CCCC2)c1=O [Palbociclib] + O=C(c1cc(Cc2n[nH]c(=O)c3ccccc23)ccc1F)N1CCN(C(=O)C2CC2)CC1 [Olaparib] (partner 8 µM)
How it was run: as §1

[3] = compound: CC(=O)c1c(C)c2cnc(Nc3ccc(N4CCNCC4)cn3)nc2n(C2CCCC2)c1=O [Palbociclib] + COc1cccc2cc(-c3nc([C@H]4CC[C@H](C(=O)O)CC4)n4ncnc(N)c34)[nH]c12 [OSI-027] (partner 0.5 µM)
How it was run: as §1

[4] = compound: CC(=O)c1c(C)c2cnc(Nc3ccc(N4CCNCC4)cn3)nc2n(C2CCCC2)c1=O [Palbociclib] + CS(=O)(=O)CCNCc1ccc(-c2ccc3ncnc(Nc4ccc(OCc5cccc(F)c5)c(Cl)c4)c3c2)o1 [Lapatinib] (partner 2 µM)
How it was run: as §1

Cell Line	relative viability ([1]; first compound 0.01 µM)	relative viability ([1]; first compound 0.03162 µM)	relative viability ([1]; first compound 0.1 µM)	relative viability ([1]; first compound 0.3162 µM)	relative viability ([1]; first compound 1 µM)	relative viability ([2]; first compound 0.01 µM)	relative viability ([2]; first compound 0.03162 µM)	relative viability ([2]; first compound 0.1 µM)	relative viability ([2]; first compound 0.3162 µM)	relative viability ([2]; first compound 1 µM)	relative viability ([3]; first compound 0.01 µM)	relative viability ([3]; first compound 0.03162 µM)	relative viability ([3]; first compound 0.1 µM)	relative viability ([3]; first compound 0.3162 µM)	relative viability ([3]; first compound 1 µM)	relative viability ([4]; first compound 0.01 µM)	relative viability ([4]; first compound 0.03162 µM)	relative viability ([4]; first compound 0.1 µM)	relative viability ([4]; first compound 0.3162 µM)	relative viability ([4]; first compound 1 µM)
201T	0.573	0.475	0.905	0.751	0.633	0.817	0.819	0.781	0.684	0.65	0.763	0.676	0.661	0.613	0.338	1.06	0.844	0.928	0.94	0.692
A549	–	–	–	–	–	0.345	0.0522	0.282	0.3	0.231	–	–	–	–	–	0.868	0.784	0.615	0.474	0.364
A-427	0.778	0.653	0.472	0.469	0.43	0.737	0.626	0.514	0.514	0.391	0.467	0.271	0.282	0.33	0.308	0.965	0.735	1.03	0.895	0.648
ABC-1	0.931	0.614	0.727	0.957	0.752	0.89	0.757	0.602	1.04	0.898	0.483	0.443	0.436	0.351	0.301	1.01	1.3	1.26	1.07	1.25
BEN	0.826	0.604	0.583	0.567	0.388	1.01	0.992	0.615	0.945	0.594	0.298	0.274	0.255	0.252	0.286	0.754	0.582	0.518	0.558	0.342
CAL-12T	0.646	0.569	0.516	0.51	0.409	0.667	0.675	0.577	0.531	0.505	0.766	0.546	0.441	0.446	0.316	0.759	–	–	0.367	0.334
COR-L23	–	–	–	–	–	0.312	0.271	0.233	0.194	0.175	0.763	0.6	0.491	0.521	0.39	1.02	0.864	0.777	0.667	0.418
COR-L 105	–	–	–	–	–	0.711	0.552	0.564	0.475	0.432	0.676	0.506	0.453	0.429	0.336	0.352	0.281	0.312	0.339	0.354
Calu-6	–	–	–	–	–	0.612	0.549	0.511	0.528	0.417	–	–	–	–	–	1.07	0.897	0.855	0.709	0.53
ChaGo-K-1	0.885	–	0.867	0.905	0.861	0.423	–	0.437	0.467	0.444	0.594	0.396	0.661	0.563	0.594	–	–	–	–	–
EBC-1	–	–	–	–	–	0.696	0.647	0.452	0.514	0.241	–	–	–	–	–	0.221	0.215	0.178	0.191	0.192
EKVX	0.7	–	0.673	0.558	0.38	0.915	–	0.647	0.608	0.438	0.713	0.664	0.6	0.575	0.366	0.184	0.193	0.193	0.178	0.12
EMC-BAC-2	1.13	0.935	0.955	1.02	0.713	0.511	0.48	0.506	0.51	0.448	0.368	0.346	0.29	0.318	0.29	0.908	0.515	0.793	0.689	0.597
EPLC-272H	0.306	–	0.383	0.251	0.274	0.779	0.807	0.681	0.615	0.313	0.293	–	0.257	0.254	0.213	1.14	–	0.71	0.603	0.718
H3255	1.07	0.8	0.831	0.798	0.506	0.646	0.547	0.458	0.493	0.373	0.597	0.49	0.405	0.469	0.382	0.263	0.246	0.2	0.231	0.211
HARA	0.379	0.137	0.244	0.364	0.242	0.673	0.596	0.524	0.852	0.344	0.509	–	0.272	0.303	0.122	0.715	0.473	0.397	0.363	0.225
HCC-15	1.27	–	1.03	1.13	0.866	0.788	–	0.626	0.651	0.598	0.677	–	0.549	0.54	0.426	0.934	–	0.75	0.796	0.642
HCC-44	1.03	0.98	0.97	0.96	1.01	0.945	0.952	1	0.965	1.01	0.487	0.492	0.512	0.582	0.482	0.886	0.939	0.978	0.979	1.02
HCC-78	0.731	0.623	0.67	0.525	0.685	1.05	0.661	0.695	0.636	0.369	0.424	0.382	0.315	0.319	0.254	0.914	0.313	0.513	0.685	0.198
HCC-366	0.198	–	0.43	0.232	0.11	0.376	–	0.384	0.335	0.215	0.916	–	0.722	0.731	0.482	1.06	–	0.953	0.91	0.608
HCC-827	0.245	0.211	0.202	0.203	0.168	0.62	0.573	0.477	0.563	0.443	0.809	0.52	0.707	0.563	0.479	0.217	0.19	0.161	0.202	0.182

Cell Line	relative viability ([1]; first compound 0.01 µM)	relative viability ([1]; first compound 0.03162 µM)	relative viability ([1]; first compound 0.1 µM)	relative viability ([1]; first compound 0.3162 µM)	relative viability ([1]; first compound 1 µM)	relative viability ([2]; first compound 0.01 µM)	relative viability ([2]; first compound 0.03162 µM)	relative viability ([2]; first compound 0.1 µM)	relative viability ([2]; first compound 0.3162 µM)	relative viability ([2]; first compound 1 µM)	relative viability ([3]; first compound 0.01 µM)	relative viability ([3]; first compound 0.03162 µM)	relative viability ([3]; first compound 0.1 µM)	relative viability ([3]; first compound 0.3162 µM)	relative viability ([3]; first compound 1 µM)	relative viability ([4]; first compound 0.01 µM)	relative viability ([4]; first compound 0.03162 µM)	relative viability ([4]; first compound 0.1 µM)	relative viability ([4]; first compound 0.3162 µM)	relative viability ([4]; first compound 1 µM)
HOP-62	0.334	–	0.389	0.501	0.355	0.319	–	0.618	0.399	0.452	0.793	–	0.697	0.624	0.446	0.77	–	0.871	0.825	0.79
IA-LM	–	–	–	–	–	0.755	0.643	0.548	0.474	0.268	–	–	–	–	–	0.701	0.41	0.392	0.264	0.143
LCLC-103H	0.731	0.55	0.716	0.708	0.539	0.701	0.709	0.731	0.669	0.584	0.432	0.368	0.406	0.358	0.302	–	–	–	–	–
NCI-H441	1.04	0.844	0.896	0.743	0.598	0.657	0.449	0.45	0.452	0.298	0.56	0.394	0.407	0.405	0.213	–	–	–	–	–
NCI-H520	–	–	–	–	–	0.289	0.35	0.255	0.199	0.173	0.21	0.228	0.203	0.236	0.212	0.92	0.556	0.695	0.572	0.243
NCI-H522	1.01	0.453	0.934	0.843	0.814	0.642	0.612	0.689	0.678	0.616	0.772	0.606	0.777	0.765	0.765	–	–	–	–	–
NCI-H661	–	–	–	–	–	0.731	0.636	0.583	0.467	0.44	0.77	0.552	0.464	0.354	0.313	0.491	0.437	0.477	0.345	0.333
NCI-H1299	–	–	–	–	–	0.925	0.924	0.886	0.79	0.65	–	–	–	–	–	0.952	0.877	0.86	0.809	0.642
NCI-H1563	–	–	–	–	–	–	–	–	–	–	0.75	0.776	0.74	0.735	0.534	0.952	0.852	0.955	0.844	0.759
NCI-H1650	–	–	–	–	–	0.795	0.562	0.551	0.642	0.513	0.701	0.404	0.522	0.481	0.403	0.774	0.258	0.263	0.578	0.351
NCI-H1703	0.12	–	0.109	0.0999	0.14	0.417	0.339	0.293	0.199	0.203	–	–	–	–	–	0.99	–	0.833	0.602	0.451
NCI-H2009	–	–	–	–	–	0.691	0.617	0.545	0.54	0.366	0.64	0.481	0.331	0.297	0.194	0.859	0.391	0.697	0.63	0.369
NCI-H2023	–	–	–	–	–	0.467	0.478	0.402	0.374	0.262	0.358	0.335	0.298	0.265	0.154	0.728	0.165	0.545	0.55	0.353
NCI-H2228	–	–	–	–	–	0.724	0.624	0.55	0.64	0.465	0.529	0.373	0.389	0.492	0.48	1.26	0.909	0.923	0.95	0.959
NCI-H2342	0.457	0.467	0.414	0.409	0.399	0.497	0.504	0.375	0.422	0.419	0.575	0.546	0.566	0.549	0.433	–	–	–	–	–
SK-LU-1	–	–	–	–	–	0.51	0.425	0.428	0.371	0.263	0.375	0.316	0.231	0.241	0.202	1.02	0.856	0.624	0.619	0.529
SK-MES-1	–	–	–	–	–	0.695	0.57	0.446	0.343	0.205	0.528	0.364	0.345	0.314	0.186	0.439	0.449	0.391	0.406	0.344
SW 900	0.67	–	0.641	0.644	0.46	0.914	–	0.975	0.865	0.725	0.582	–	0.399	0.322	0.358	–	–	–	–	–
SW 1573	–	–	–	–	–	0.463	0.452	0.454	0.359	0.291	0.662	0.468	0.389	0.357	0.235	1.01	1.09	1.04	0.901	0.781
UMC-11	–	–	–	–	–	0.332	0.375	0.341	0.298	0.136	0.462	0.417	0.302	0.308	0.286	1.03	0.75	0.593	0.432	0.34
